Like-named read-outs stand apart in the source and are kept apart here. Bounds are passed on as bounds.

One data set relates to HIV-1 WT virus (NL4-3). The data set can be described thus: microbe, parasite or virus in culture. It is filed as cell-based. To be noted: for EC50: Human immunodeficiency virus 1, NL43, CEM-SS, read-out: EC50. As for the experimental part: Evaluation of these compounds for the inhibition of HIV-1 was determined as the fifty percent cell culture inhibitory concentration (CIC50) in CEMSS cell culture with WT virus (NL4-3).
(§1) In this Example, the antiviral and cellular toxicity of NNRTIs was investigated, using the cytopathic cell killing assay described by Yang (Yang et al., “Characteristics of a Group of Non-nucleoside Reverse Transcriptase Inhibitors with Structural Diversity and Potent Anti-Human Immunodeficiency Virus Activity,” Leukemia 9:S75-S85 [1995]). Briefly, in this method cells (e.g., the CEM-SS cell line, available from the NIAID AIDS Research and Reference Program [ARRRP]) were seeded at a density of 5×10^3 cells/well, into the wells of a 96-well microtiter plate. The cells were then infected with HIV virus (either mutant or WT), at a multiplicity of infection (MOI) previously determined to provide complete cell killing by 6 days of culture post-infection (e.g., MOI of 0.01-0.05). Each of the HIV isolates was pre-titered to induce equivalent levels of infection based on cell killing or virus production, prior to their use in these assays. A range of test compound concentrations was added to the wells in triplicate (e.g., serial half-log dilutions) to evaluate inhibition of HIV infection. Controls for each assay included drug controls (drug colorimetric control wells), drug cytotoxicity control wells (cells with drug), virus control wells (cells with virus), and cell viability controls (cells only). Positive control drugs (e.g. AZT and ddC) were also run in parallel.
(§2) After six days of incubation at 37° C., cell viability was determined spectrophotometrically at 450 nm for each well, using the metabolic reduction of XTT to a soluble colored formazan. (See, Gartner and Popovic, “Virus Isolation and Production, in Aldovini and Walker (eds.), Techniques in HIV Research, Stockton Press, NY, pp. […] [1991]; and Nara and Fischinger, “Quantitative Infectivity Assay for HIV-1 and HIV-2, ” Nature 332:469-470 [1988]).
(§3) The in vitro therapeutic index (TI50) was defined as the fold-difference between the EC50 and IC50. The results for the various compounds are included in FIGS. 8 and 19.

Another data set deals with HIV-1 WT RT (Human immunodeficiency virus type 1 group M subtype B, UniProt P03366). The data set can be described thus: biochemical. It is filed as biochemical.
In data set [1] the test system is HIV-1 isolate 4xAZT/Y181C. The data set can be described thus: Cytopathic cell killing assay, MT-4 cells, isolate 4xAZT/Y181C. It is filed as cell-based.
Text: (§4) The various HIV isolates tested in the Figures are those corresponding to wild-type virus (NL4-3) and the other strains listed by their RT mutations. The three 4×AZT isolates included in the Figures represent AZT drug-resistant variants. For example, the 4×AZT/L100I isolate has five mutations: four mutations confer increased resistance to AZT, and the other mutation is located within the NNRTI binding pocket. TZB and nevir. (nevirapine) are two well-known NNRTIs, included in this experiment for comparison purposes.
as §1, §2, §3
For orientation: Damage to the host cells serves as the signal in cytopathic effect assays.

The test system of the next data set is HIV-1 isolate Y188H. The data set can be described thus: Cytopathic cell killing assay, isolate Y188H. To be noted: Human immunodeficiency virus 1, read-out: EC50, isolate Y188H. It is filed as cell-based.
Text: as §4, §1, §2, §3

In the next data set the test system is HIV-1 isolate K101E. Briefly: Cytopathic cell killing assay, MT-4 cells, isolate K101E. It is filed as cell-based. To be noted: Human immunodeficiency virus 1, MT4, read-out: EC50, isolate K101E, Table 4; MT-4 cells.
Text: as §4, §1, §2, §3

For data set [2], the system named is WT and HIV-1 variants containing amino acid substitutions in RT. It is filed as cell-based. To be noted: Table 4 isolates.
Text: In these Tables, antiviral data are reported as the quantity of drug in μM required to reduce cell killing or virus production by 50% (EC50). The various HIV isolates tested in the Figures are those corresponding to wild-type virus (NL4-3) and the other strains listed by their RT mutations. The three 4×AZT isolates included in the Figures represent AZT drug-resistant variants.
Briefly, in this method cells (e.g., the CEM-SS cell line, available from the NIAID AIDS Research and Reference Program [ARRRP]) were seeded at a density of 5×10^3 cells/well, into the wells of a 96-well microtiter plate. The cells were then infected with HIV virus (either mutant or WT), at a multiplicity of infection (MOI) previously determined to provide complete cell killing by 6 days of culture post-infection (e.g., MOI of 0.01-0.05). Each of the HIV isolates was pre-titered to induce equivalent levels of infection based on cell killing or virus production, prior to their use in these assays. A range of test compound concentrations was added to the wells in triplicate (e.g., serial half-log dilutions) to evaluate inhibition of HIV infection. Controls for each assay included drug controls (drug colorimetric control wells), drug cytotoxicity control wells (cells with drug), virus control wells (cells with virus), and cell viability controls (cells only). Positive control drugs (e.g. AZT and ddC) were also run in parallel.
as §2
Antiviral and toxicity data were reported as the quantity of drug required to inhibit 50% of virus-induced cell killing or virus production (EC50), and the quantity of drug required to […] (IC50). The in vitro therapeutic index (TI50) was defined as the fold-difference between the EC50 and IC50.

The test system of a further data set is HIV-1 isolate V108I. Briefly: Cytopathic cell killing assay, MT-4 cells, isolate V108I. It is filed as cell-based. To be noted: Human immunodeficiency virus 1, MT4, read-out: EC50, isolate V108I, Table 4; MT-4 cells.
Text: as §4, §1, §2, §3

The test system of the next data set is HIV-1 isolate Y188C. The data set can be described thus: Cytopathic cell killing assay, MT-4 cells, isolate Y188C. It is filed as cell-based.
Text: as §4, §1, §2, §3

The test system of the next data set is HIV-1 isolate Y181C. Briefly: Cytopathic cell killing assay, MT-4 cells, isolate Y181C. It is filed as cell-based. To be noted: Human immunodeficiency virus 1, MT4, read-out: EC50, isolate Y181C, Table 9; MT-4 cells.
Text: as §4, §1, §2, §3

The subject of another data set is HIV-1 isolate K103N. Briefly: Cytopathic cell killing assay, MT-4 cells, isolate K103N. It is filed as cell-based. To be noted: Human immunodeficiency virus 1, MT4, read-out: EC50, isolate K103N, Table 4; MT-4 cells.
Text: as §4, §1, §2, §3

Setting [3] is: Table 11, CEMSS/NL4-3, NRVC = no reduction in viral CPE.
The mark [4] stands for this setting: Table 7, drug concentration required to reduce cell killing or virus production by 50%, WT.

Take `Fc1cccc(F)c1Cn1c(-c2c(F)cccc2F)nc2ccccc21` [Compound 26, 1-(2,6-difluorobenzyl)-2-(2,6-difluorophenyl)benzimidazole]: the EC50 is 1.7 µM in the data set on HIV-1 WT virus (NL4-3) (setting [3]) and > 20 µM in [1] (Human immunodeficiency virus 1, MT4, read-out: EC50, isolate 4XAZT/Y181C). The inhibition at 1 µM on HIV-1 WT RT (Table 5, 1 μM drug, WT HIV-1 RT, average of two experiments done in triplicates, read-out: % inhibn (1 μM)) amounted to 50%. At HIV-1 WT RT (WT RT), the “RT inhibition, result in words” value was “four-fold increase in inhibitory activity”.

As a reminder, the melting point is the temperature of the solid-liquid transition. Compound `O=[N+]([O-])c1cccc2c1nc(-c1c(F)cccc1F)n2Cc1c(F)cccc1F` [Compound 3100, 1-(2,6-difluorobenzyl)-2-(2,6-difluorophenyl)-4-nitrobenzimidazole] yielded a melting point of 169 °C. Further, in the data set with HIV-1 isolate Y188H, the EC50 was > 50 µM. In the data set with HIV-1 WT virus (NL4-3) (setting [4]), the EC50 amounted to 2.4 µM.

In turn, `Cc1cccc2c1nc(-c1c(F)cccc1F)n2Cc1c(F)cccc1F` [Compound 33, 1-(2,6-difluorobenzyl)-2-(2,6-difluorophenyl)-4-methylbenzimidazole] gave a melting point of 182 to 186 °C. Also, in the data set on HIV-1 isolate K101E, the EC50 was determined as 16.7 µM. Also, the “fold better in the inhibition of the various viral isolates than des-methyl analog 26” value in data set [2] is on record as 3- to 4 fold. Moreover, in the data set on HIV-1 isolate V108I, the EC50 is 2.8 µM. Moreover, the EC50 with HIV-1 isolate Y188C (Human immunodeficiency virus 1, MT4, read-out: EC50, isolate Y188C, Table 4, MT-4 cells) was found to be 2.3 µM. Moreover, the EC50 in the data set with HIV-1 isolate Y188C (Human immunodeficiency virus 1, MT4, read-out: EC50, isolate Y188C, Table 10, values in μM) turned out to be 2.3 µM. The “cytotoxicity and anti-viral effect, summary graph, result in words” value in the data set with HIV-1 WT virus (NL4-3) (FIGS. 10-12) is listed as “very effective therapeutic dose”. The EC50 in the data set with HIV-1 WT virus (NL4-3) (setting [4]) stood at 0.44 µM. In the data set with HIV-1 WT virus (NL4-3) (setting [3]), the EC50 was 0.44 µM. Besides, the “therapeutic index at 50% (TC50)” value in the data set on HIV-1 WT virus (NL4-3) (difference between efficacy of the drug and cellular toxicity, FIG. 10) is “greater than one log in concentration”. The EC50 in the data set with HIV-1 isolate Y181C is 4.3 µM. In addition, the EC50 in [1] (read-out: EC50, isolate 4XAZT/Y181C, Table 9, MT-4 cells) worked out at 3.5 µM. Also, in the data set on HIV-1 isolate K103N, the EC50 was determined as 8.1 µM.

Source of the values: patent US6894068B2, “Substituted benzimidazoles as non-nucleoside inhibitors of reverse transcriptase” (The United States of America as represented by the …, priority 1997, dated 2005).
